# Columns and labels:
# [1] = target: T1, wt human TYK2, catalytic site (Homo sapiens, UniProt P29597); assay: HTRF KinEASE assay, TYK2; type: biochemical; conditions: 1 μM ATP; read-out: IC50, Activity Toward TYK2
# T1 construct: wt human TYK2, catalytic site; purchased SignalChem
# T1 sequence (P29597 897-1176 limits assumed): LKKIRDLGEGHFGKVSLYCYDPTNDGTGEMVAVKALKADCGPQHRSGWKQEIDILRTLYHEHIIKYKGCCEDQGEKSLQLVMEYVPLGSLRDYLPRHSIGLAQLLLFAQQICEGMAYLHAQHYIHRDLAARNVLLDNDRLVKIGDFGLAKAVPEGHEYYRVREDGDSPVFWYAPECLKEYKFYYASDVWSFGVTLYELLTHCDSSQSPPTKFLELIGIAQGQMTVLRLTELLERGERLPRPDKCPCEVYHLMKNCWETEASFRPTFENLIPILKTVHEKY
# Procedure, shortened: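 HTRF KinEASE-TK readout with 1 μM biotinylated TK substrate in 1× kinase buffer, ≥30 min at room temperature, then antibody/streptavidin-XL665 detection for 60 min. TYK2 at 2 nM with 1 μM ATP; JAK2 at 1 nM with 100 μM ATP. Analysis uses emission ratios.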
# [2] = target: T2, wt human JAK1, catalytic site (Homo sapiens, UniProt P23458); assay: HTRF KinEASE assay, JAK1; type: biochemical; conditions: 2.5 μM ATP; read-out: IC50, Activity Toward JAK1
# T2 construct: wt human JAK1, catalytic site; purchased ThermoFisher
# T2 sequence (P23458 875-1153 limits assumed): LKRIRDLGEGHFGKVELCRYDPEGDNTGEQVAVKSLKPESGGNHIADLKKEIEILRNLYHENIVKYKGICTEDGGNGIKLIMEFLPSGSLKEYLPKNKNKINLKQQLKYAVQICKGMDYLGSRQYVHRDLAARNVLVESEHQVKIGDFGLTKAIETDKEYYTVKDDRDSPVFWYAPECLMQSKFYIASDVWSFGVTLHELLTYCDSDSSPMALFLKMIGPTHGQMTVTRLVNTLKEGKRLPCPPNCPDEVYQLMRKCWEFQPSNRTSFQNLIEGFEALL
# Procedure, shortened: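 Two-step HTRF KinEASE assay: compound, kinase/biotinylated TK substrate and ATP were incubated at least 30 min at room temperature. Antibody plus streptavidin-XL665 was then added and plates were read after 60 min. Inhibition was derived from emission ratios according to the kit protocol.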
SMILES,IC50 [1],IC50 [2]
"NC(=O)c1nn(-c2c(Cl)cccc2Cl)cc1Nc1ccc(C(=O)N2CCN(C3CC3)CC2)nc1 [compound 364, 4-((6-(4-cyclopropylpiperazine-1-carbonyl)pyridin-3-yl)amino)-1-(2,6-dichlorophenyl)-1H-pyrazole-3-carboxamide]",10 to 100 nM,100 to 1000 nM
"NC(=O)c1nn(-c2c(Cl)cccc2Cl)cc1Nc1ccc(C(=O)N2CCOCC2)nc1 [compound 365, 1-(2,6-dichlorophenyl)-4-((6-(morpholine-4-carbonyl)pyridin-3-yl)amino)-1H-pyrazole-3-carboxamide]",10 to 100 nM,10 to 100 nM
"CN(C)[C@H]1CCN(C(=O)c2ccc(Nc3cn(-c4c(Cl)cccc4Cl)nc3C(N)=O)nc2)C1 [compound 366, (S)-1-(2,6-dichlorophenyl)-4-((5-(3-(dimethylamino)pyrrolidine-1-carbonyl)pyridin-2-yl)amino)-1H-pyrazole-3-carboxamide]",10 to 100 nM,100 to 1000 nM
"NC(=O)c1nn(-c2c(Cl)cccc2Cl)cc1Nc1ccc(C(=O)N2CC[C@H](F)C2)cn1 [compound 367, (S)-1-(2,6-dichlorophenyl)-4-((5-(3-fluoropyrrolidine-1-carbonyl)pyridin-2-yl)amino)-1H-pyrazole-3-carboxamide]",10 to 100 nM,100 to 1000 nM
"CN1CCN(C(=O)c2ccc(Nc3cn(-c4c(Cl)cccc4Cl)nc3C(N)=O)nc2)CC1 [compound 370, 1-(2,6-dichlorophenyl)-4-((5-(4-methylpiperazine-1-carbonyl)pyridin-2-yl)amino)-1H-pyrazole-3-carboxamide]",10 to 100 nM,100 to 1000 nM
"NC(=O)c1nn(-c2c(Cl)cccc2Cl)cc1Nc1ccc(-n2nc(C(F)(F)F)nc2CO)cc1 [compound 371, 1-(2,6-dichlorophenyl)-4-((4-(5-(hydroxymethyl)-3-(trifluoromethyl)-1H-1,2,4-triazol-1-yl)phenyl)amino)-1H-pyrazole-3-carboxamide]",< 10 nM,100 to 1000 nM
"NC(=O)c1nn(-c2c(Cl)cccc2Cl)cc1Nc1ccc(-c2nc(C(F)(F)F)cn2CCO)nc1 [compound 373, 1-(2,6-dichlorophenyl)-4-((6-(1-(2-hydroxyethyl)-4-(trifluoromethyl)-1H-imidazol-2-yl)pyridin-3-yl)amino)-1H-pyrazole-3-carboxamide]",10 to 100 nM,100 to 1000 nM
"Cc1cnc(C)c(-n2cc(Nc3cn(-c4c(Cl)cccc4Cl)nc3C(N)=O)cn2)n1 [compound 374, 1-(2,6-dichlorophenyl)-4-((1-(3,6-dimethylpyrazin-2-yl)-1H-pyrazol-4-yl)amino)-1H-pyrazole-3-carboxamide]",100 to 1000 nM,100 to 1000 nM
"Cn1nnnc1-c1ccc(Nc2cn(-c3c(Cl)cccc3Cl)nc2C(N)=O)cn1 [compound 375, 1-(2,6-dichlorophenyl)-4-((6-(1-methyl-1H-tetrazol-5-yl)pyridin-3-yl)amino)-1H-pyrazole-3-carboxamide]",10 to 100 nM,100 to 1000 nM
"Cn1cc(Nc2cn(-c3c(Cl)cccc3Cl)nc2C(N)=O)cn1 [compound 377, 1-(2,6-dichlorophenyl)-4-((1-methyl-1H-pyrazol-4-yl)amino)-1H-pyrazole-3-carboxamide]",100 to 1000 nM,10 to 100 nM
"CC(C)n1cc(Nc2cn(-c3c(Cl)cccc3Cl)nc2C(N)=O)cn1 [compound 378, 1-(2,6-dichlorophenyl)-4-((1-isopropyl-1H-pyrazol-4-yl)amino)-1H-pyrazole-3-carboxamide]",10 to 100 nM,100 to 1000 nM
"Cn1ncc(Nc2cn(-c3c(Cl)cccc3Cl)nc2C(N)=O)n1 [compound 379, 1-(2,6-dichlorophenyl)-4-((2-methyl-2H-1,2,3-triazol-4-yl)amino)-1H-pyrazole-3-carboxamide]",100 to 1000 nM,100 to 1000 nM
"Cn1cc(Nc2cn(-c3c(Cl)cccc3Cl)nc2C(N)=O)nn1 [compound 380, 1-(2,6-dichlorophenyl)-4-((1-methyl-1H-1,2,3-triazol-4-yl)amino)-1H-pyrazole-3-carboxamide]",100 to 1000 nM,100 to 1000 nM

# Reference: patent US20230373985A1 (Origenis Gmbh, priority 2020, published 2023)
